Source: ChEMBL document CHEMBL4406882, “The plant-derived chalcone Xanthoangelol targets the membrane of Gram-positive bacteria” (Bioorg Med Chem, 2019)
Calls of active or inactive are those of the source.

Columns and labels:
Assay type in all cases: functional, organism-based
Bacillus subtilis [1] = test: Induction of PspA protein expression in Bacillus subtilis 168 at 2.3 uM incubated for 15 mins by 35S-methionine pulse labeling based 2D-PAGE analysis
Bacillus subtilis [2] = test: Induction of FabG protein expression in Bacillus subtilis 168 at 2.3 uM incubated for 15 mins by 35S-methionine pulse labeling based 2D-PAGE analysis
Bacillus subtilis [3] = test: Induction of SufD protein expression in Bacillus subtilis 168 at 2.3 uM incubated for 15 mins by 35S-methionine pulse labeling based 2D-PAGE analysis
Bacillus subtilis [4] = test: Induction of GroEL.2 protein expression in Bacillus subtilis 168 at 2.3 uM incubated for 15 mins by 35S-methionine pulse labeling based 2D-PAGE analysis
Bacillus subtilis [5] = test: Induction of YqiG protein expression in Bacillus subtilis 168 at 2.3 uM incubated for 15 mins by 35S-methionine pulse labeling based 2D-PAGE analysis
Bacillus subtilis [6] = test: Induction of YdjE protein expression in Bacillus subtilis 168 at 2.3 uM incubated for 15 mins by 35S-methionine pulse labeling based 2D-PAGE analysis
Bacillus subtilis [7] = test: Induction of ClpC protein expression in Bacillus subtilis 168 at 2.3 uM incubated for 15 mins by 35S-methionine pulse labeling based 2D-PAGE analysis
Bacillus subtilis [8] = test: Induction of ArgB protein expression in Bacillus subtilis 168 at 2.3 uM incubated for 15 mins by 35S-methionine pulse labeling based 2D-PAGE analysis
Bacillus subtilis [9] = test: Induction of YhfK protein expression in Bacillus subtilis 168 at 2.3 uM incubated for 15 mins by 35S-methionine pulse labeling based 2D-PAGE analysis
Bacillus subtilis [10] = test: Induction of NfrA protein expression in Bacillus subtilis 168 at 2.3 uM incubated for 15 mins by 35S-methionine pulse labeling based 2D-PAGE analysis
Bacillus subtilis [11] = test: Induction of BdhA protein expression in Bacillus subtilis 168 at 2.3 uM incubated for 15 mins by 35S-methionine pulse labeling based 2D-PAGE analysis
Bacillus subtilis [12] = test: Induction of Hom protein expression in Bacillus subtilis 168 at 2.3 uM incubated for 15 mins by 35S-methionine pulse labeling based 2D-PAGE analysis
Bacillus subtilis [13] = test: Induction of ClpP protein expression in Bacillus subtilis 168 at 2.3 uM incubated for 15 mins by 35S-methionine pulse labeling based 2D-PAGE analysis
Bacillus subtilis [14] = test: Induction of GroEL.1 protein expression in Bacillus subtilis 168 at 2.3 uM incubated for 15 mins by 35S-methionine pulse labeling based 2D-PAGE analysis
Bacillus subtilis [15] = test: Induction of DnaK.1 protein expression in Bacillus subtilis 168 at 2.3 uM incubated for 15 mins by 35S-methionine pulse labeling based 2D-PAGE analysis
Bacillus subtilis [16] = test: Induction of PepF protein expression in Bacillus subtilis 168 at 2.3 uM incubated for 15 mins by 35S-methionine pulse labeling based 2D-PAGE analysis
Bacillus subtilis [17] = test: Induction of AroA protein expression in Bacillus subtilis 168 at 2.3 uM incubated for 15 mins by 35S-methionine pulse labeling based 2D-PAGE analysis
Bacillus subtilis [18] = test: Induction of Hag protein expression in Bacillus subtilis 168 at 2.3 uM incubated for 15 mins by 35S-methionine pulse labeling based 2D-PAGE analysis
Bacillus subtilis [19] = test: Induction of YvlB protein expression in Bacillus subtilis 168 at 2.3 uM incubated for 15 mins by 35S-methionine pulse labeling based 2D-PAGE analysis
Bacillus subtilis [20] = test: Induction of YuaE protein expression in Bacillus subtilis 168 at 2.3 uM incubated for 15 mins by 35S-methionine pulse labeling based 2D-PAGE analysis
Bacillus subtilis [21] = test: Induction of GroES protein expression in Bacillus subtilis 168 at 2.3 uM incubated for 15 mins by 35S-methionine pulse labeling based 2D-PAGE analysis
Bacillus subtilis [22] = test: Induction of YceH protein expression in Bacillus subtilis 168 at 2.3 uM incubated for 15 mins by 35S-methionine pulse labeling based 2D-PAGE analysis
Bacillus subtilis [23] = test: Induction of PpaC protein expression in Bacillus subtilis 168 at 2.3 uM incubated for 15 mins by 35S-methionine pulse labeling based 2D-PAGE analysis
Bacillus subtilis [24] = test: Induction of HisI protein expression in Bacillus subtilis 168 at 2.3 uM incubated for 15 mins by 35S-methionine pulse labeling based 2D-PAGE analysis
Bacillus subtilis [25] = test: Induction of DnaK.2 protein expression in Bacillus subtilis 168 at 2.3 uM incubated for 15 mins by 35S-methionine pulse labeling based 2D-PAGE analysis
Bacillus subtilis [26] = test: Induction of Cah protein expression in Bacillus subtilis 168 at 2.3 uM incubated for 15 mins by 35S-methionine pulse labeling based 2D-PAGE analysis
Bacillus subtilis [27] = test: Induction of CysK protein expression in Bacillus subtilis 168 at 2.3 uM incubated for 15 mins by 35S-methionine pulse labeling based 2D-PAGE analysis
Bacillus subtilis [28] = test: Induction of SerA protein expression in Bacillus subtilis 168 at 2.3 uM incubated for 15 mins by 35S-methionine pulse labeling based 2D-PAGE analysis
Bacillus subtilis [29] = test: Induction of YfmJ protein expression in Bacillus subtilis 168 at 2.3 uM incubated for 15 mins by 35S-methionine pulse labeling based 2D-PAGE analysis
Bacillus subtilis [30] = test: Induction of Tpx protein expression in Bacillus subtilis 168 at 2.3 uM incubated for 15 mins by 35S-methionine pulse labeling based 2D-PAGE analysis
Bacillus subtilis [31] = test: Induction of MenB protein expression in Bacillus subtilis 168 at 2.3 uM incubated for 15 mins by 35S-methionine pulse labeling based 2D-PAGE analysis
Bacillus subtilis [32] = test: Induction of PdhA protein expression in Bacillus subtilis 168 at 2.3 uM incubated for 15 mins by 35S-methionine pulse labeling based 2D-PAGE analysis
Bacillus subtilis [33] = test: Induction of YqjE protein expression in Bacillus subtilis 168 at 2.3 uM incubated for 15 mins by 35S-methionine pulse labeling based 2D-PAGE analysis
Bacillus subtilis [34] = test: Induction of TrxA protein expression in Bacillus subtilis 168 at 2.3 uM incubated for 15 mins by 35S-methionine pulse labeling based 2D-PAGE analysis
Bacillus subtilis [35] = test: Induction of YkgB protein expression in Bacillus subtilis 168 at 2.3 uM incubated for 15 mins by 35S-methionine pulse labeling based 2D-PAGE analysis
Bacillus subtilis [36] = test: Induction of HisG protein expression in Bacillus subtilis 168 at 2.3 uM incubated for 15 mins by 35S-methionine pulse labeling based 2D-PAGE analysis
Bacillus subtilis [37] = test: Induction of YwfI protein expression in Bacillus subtilis 168 at 2.3 uM incubated for 15 mins by 35S-methionine pulse labeling based 2D-PAGE analysis
Bacillus subtilis [38] = test: Induction of SodA protein expression in Bacillus subtilis 168 at 2.3 uM incubated for 15 mins by 35S-methionine pulse labeling based 2D-PAGE analysis
Bacillus subtilis [39] = test: Induction of AhpF protein expression in Bacillus subtilis 168 at 2.3 uM incubated for 15 mins by 35S-methionine pulse labeling based 2D-PAGE analysis

Measured: Activity

CC(C)=CCC/C(C)=C/Cc1c(O)ccc(C(=O)/C=C/c2ccc(O)cc2)c1O [XANTHOANGELOL]
active: Bacillus subtilis [1] | Bacillus subtilis [2] | Bacillus subtilis [3] | Bacillus subtilis [4] | Bacillus subtilis [5] | Bacillus subtilis [6] | Bacillus subtilis [7] | Bacillus subtilis [8] | Bacillus subtilis [9] | Bacillus subtilis [10] | Bacillus subtilis [11] | Bacillus subtilis [12] | Bacillus subtilis [13] | Bacillus subtilis [14] | Bacillus subtilis [15] | Bacillus subtilis [16] | Bacillus subtilis [17] | Bacillus subtilis [18] | Bacillus subtilis [19] | Bacillus subtilis [20] | Bacillus subtilis [21] | Bacillus subtilis [22] | Bacillus subtilis [23] | Bacillus subtilis [24] | Bacillus subtilis [25] | Bacillus subtilis [26] | Bacillus subtilis [27] | Bacillus subtilis [28] | Bacillus subtilis [29] | Bacillus subtilis [30] | Bacillus subtilis [31] | Bacillus subtilis [32] | Bacillus subtilis [33] | Bacillus subtilis [34] | Bacillus subtilis [35] | Bacillus subtilis [36] | Bacillus subtilis [37] | Bacillus subtilis [38] | Bacillus subtilis [39]
